In ChEMBL document CHEMBL3808296, “A combined in silico/in vitro approach unveils common molecular requirements for efficient BVDV RdRp binding of linear aromatic N-polycyclic systems” (Eur J Med Chem, 2016):

Experiments:
[1] = Cytotoxicity against mock-infected BHK21 cells assessed as reduction in cell viability after 72 hrs by MTT assay; format: cell-based, Mesocricetus auratus, BHK-21; settings: hamster
Yellow fever virus = test: Antiviral activity against Yellow fever virus 17D infected in BHK21 cells assessed as inhibition of virus induced cytopathogenicity after 3 to 4 days by MTT assay; format: functional, cell-based; settings: BHK-21
[2] = system: Mammalian orthoreovirus 1; test: Antiviral activity against Reovirus type-1 3651 infected in BHK21 cells assessed as inhibition of virus induced cytopathogenicity after 3 to 4 days by MTT assay; format: functional, cell-based; settings: Mammalian orthoreovirus 1, 3651, BHK-21
[3] = Cytotoxicity against mock-infected african green monkey Vero 76 cells assessed as reduction in cell viability after 48 to 96 hrs by MTT assay; format: cell-based; settings: chlorocebus sabaeus, mock-infected Vero 76 cells
Coxsackievirus B2 = test: Antiviral activity against CVB-2 infected in Vero 76 cells after 3 days by crystal violet staining based plaque reduction assay; format: functional, organism-based; settings: Enterovirus B, Vero 76, 72 h
Poliovirus 1 = test: Antiviral activity against Human poliovirus 1 strain Sabin infected in Vero 76 cells after 2 days by crystal violet staining based plaque reduction assay; format: functional, organism-based; settings: Enterovirus C, Vero 76, 48 h
[4] = system: Respiratory syncytial virus; test: Antiviral activity against Respiratory syncytial virus A2 infected in Vero 76 cells after 5 days by crystal violet staining based plaque reduction assay; format: functional, organism-based; settings: human respiratory syncytial virus, A2, Vero 76, 120 h
[5] = system: Vesicular stomatitis virus; test: Antiviral activity against Vesicular stomatitis virus Indiana infected in Vero 76 cells after 2 days by crystal violet staining based plaque reduction assay; format: functional, organism-based; settings: Vero 76, 48 h
Vaccinia virus = test: Antiviral activity against Vaccinia virus Elstree infected in Vero 76 cells after 3 days by crystal violet staining based plaque reduction assay; format: functional, organism-based; settings: Orthopoxvirus vaccinia, Vero 76, 72 h
[6] = Cytotoxicity against mock-infected MDBK cells assessed as reduction in cell viability after 72 hrs by MTT assay; format: cell-based, Bos taurus; settings: cattle
[7] = Antiviral activity against BVDV NADL infected in MDBK cells assessed as inhibition of virus induced cytopathogenicity after 3 to 4 days by MTT assay; format: functional, cell-based, Bovine viral diarrhea virus 1-NADL; settings: Bovine viral diarrhea virus isolates and strains
[8] = Selectivity index, ratio of CC50 for MDBK cells to EC50 for […] NADL infected in MDBK cells
[9] = system: Bovine viral diarrhea virus 1; test: Antiviral activity against BVDV; format: functional, organism-based; settings: Bovine viral diarrhea virus isolates and strains
[10] = Inhibition of BVDV RNA-dependent RNA polymerase; parameters: species or system Bovine viral diarrhea virus 1
[11] = Inhibition of HCV RNA-dependent RNA polymerase; parameters: species or system Hepacivirus hominis
[12] = Inhibition of His tagged BVDV NS5B Cdelta24 RNA dependent RNA polymerase expressed in Escherichia coli Rosetta DE3 preincubated for 30 mins followed by addition of GTP measured after 120 mins by fluorescence analysis; parameters: species or system Bovine viral diarrhea virus 1
[13] = Inhibition of His tagged BVDV NS5B Cdelta24 RNA dependent RNA polymerase K263A mutant expressed in Escherichia coli Rosetta DE3 preincubated for 30 mins followed by addition of GTP measured after 120 mins by fluorescence analysis; parameters: species or system Bovine viral diarrhea virus 1

Structure (SMILES)	CC50 at 72 h [1]	CC50 [3]	EC50 (Coxsackievirus B2)	EC50 (Vaccinia virus)	CC50 at 72 h [6]	EC50 [7]	Ratio CC50/EC50 [8]	other results
NS(=O)(=O)c1ccc(-c2nc3cc4cccnc4c(Cl)c3[nH]2)cc1	> 100 µM	> 100 µM	> 100 µM	> 100 µM	> 100 µM	> 100 µM		EC50 (Yellow fever virus): > 100 µM; EC50 [2]: > 100 µM; EC50 (Poliovirus 1): 21 µM; EC50 [4]: 18 µM; EC50 [5]: > 100 µM
FC(F)(F)c1ccc(-c2nc3cc4cccnc4cc3[nH]2)cc1	> 100 µM	> 100 µM	> 100 µM	> 100 µM	> 100 µM	7 µM	>14.2	EC50 (Yellow fever virus): > 100 µM; EC50 [2]: 52 µM; EC50 (Poliovirus 1): 67 µM; EC50 [4]: > 100 µM; EC50 [5]: > 100 µM
O=[N+]([O-])c1ccc(-c2nc3cc4cccnc4c(Cl)c3[nH]2)cc1					> 100 µM			EC50 [9]: 1.2 µM; IC50 [10]: 0.06 µM; IC50 [11]: 8 µM
Clc1c2ncccc2cc2nc(-c3ccoc3)[nH]c12					> 100 µM	2 µM	>50	
N#Cc1ccc(/C=N/c2cc3cccnc3c(Cl)c2N)cc1						2 µM		
COc1nc2cc3cccnc3c(Cl)c2nc1C(C)C						> 100 µM		
N#Cc1ccc(-c2nc3cc4cccnc4cc3[nH]2)cc1	21 µM	30 µM	> 30 µM	> 100 µM	> 100 µM	4 µM	>25	EC50 (Yellow fever virus): > 21 µM; EC50 [2]: 7 µM; EC50 (Poliovirus 1): > 30 µM; EC50 [4]: > 16 µM; EC50 [5]: > 100 µM
O=[N+]([O-])c1ccc(-c2nc3cc4cccnc4c(Cl)c3n2CC2CCCCC2)cc1	16 µM	20 µM	> 20 µM	> 20 µM	33 µM	5 µM	>6.6	EC50 (Yellow fever virus): > 13 µM; EC50 [2]: ≥ 16 µM; EC50 (Poliovirus 1): > 20 µM; EC50 [4]: > 20 µM; EC50 [5]: > 20 µM
COc1ccc(-c2nc3cc(/C(C)=N/NC(N)=S)ccc3[nH]2)c(OC)c1						0.002 µM		
Fc1ccc(-c2nc3cc4cccnc4cc3[nH]2)c(F)c1	> 100 µM	> 100 µM	35 µM	> 100 µM	> 100 µM	6 µM	>16.7	EC50 (Yellow fever virus): > 100 µM; EC50 [2]: 10 µM; EC50 (Poliovirus 1): > 100 µM; EC50 [4]: > 58 µM; EC50 [5]: > 100 µM
COc1nc2cc3cccnc3c(Cl)c2nc1-c1cccs1						1.3 µM		IC50 [12]: 0.64 µM; IC50 [13]: 0.96 µM
COc1ccc(-c2nc3cc4cccnc4cc3[nH]2)c(OC)c1	45 µM	90 µM	12 µM	16 µM	> 100 µM	3.4 µM	>29.4	EC50 (Yellow fever virus): > 45 µM; EC50 [2]: 38 µM; EC50 (Poliovirus 1): 16 µM; EC50 [4]: > 45 µM; EC50 [5]: > 90 µM
CSc1ccc(-c2nc3cc4cccnc4c(Cl)c3[nH]2)cc1	> 100 µM	> 100 µM	> 100 µM	> 100 µM	> 100 µM	6.1 µM	>16.4	EC50 (Yellow fever virus): > 100 µM; EC50 [2]: 100 µM; EC50 (Poliovirus 1): > 100 µM; EC50 [4]: > 100 µM; EC50 [5]: > 100 µM
COc1c(C)c2c(c(O)c1C/C=C(\C)CCC(=O)O)C(=O)OC2 [MYCOPHENOLIC ACID]		> 12.5 µM						
CC(=O)c1ccc(-c2nc3ccncc3[nH]2)cc1						7 µM		IC50 [12]: 11 µM; IC50 [13]: 15 µM
O=c1cnn([C@@H]2O[C@H](CO)[C@@H](O)[C@H]2O)c(=O)[nH]1 [6-AZAURIDINE]		> 12.5 µM						
C[C@@]1(O)[C@H](O)[C@@H](CO)O[C@H]1n1cnc2c(=O)[nH]c(N)nc21 [2'-B-METHYL-GUANOSINE]	> 10 µM				> 10 µM		>9.1	
COc1ccc(-c2nc3cc4cccnc4c(Cl)c3n2CC2CCCCC2)cc1					20 µM	5 µM	4	

Structure (SMILES)	CC50 at 72 h [1]	CC50 [3]	EC50 (Coxsackievirus B2)	EC50 (Vaccinia virus)	CC50 at 72 h [6]	EC50 [7]	Ratio CC50/EC50 [8]	other results
CC(=O)c1ccc(-c2nc3cccnc3[nH]2)cc1						> 100 µM		
O=c1cnc2c(Cl)c3ncccc3cc2[nH]1						> 100 µM		
C#C[C@@]1(O)[C@H](O)[C@@H](CO)O[C@H]1n1ccc(N)nc1=O [2'-ETHYNYL-D-CYTIDINE]		> 100 µM	27 µM					
N#Cc1ccc(-c2nc3cc4cccnc4c(Cl)c3[nH]2)cc1					> 100 µM	0.3 µM	>333.3	IC50 [12]: 0.48 µM; IC50 [13]: 0.75 µM
CC(=O)c1ccc(-c2nc3cc4cccnc4c(Cl)c3[nH]2)cc1	> 100 µM	> 100 µM	> 100 µM	> 100 µM	> 100 µM	5.8 µM	>17.2	EC50 (Yellow fever virus): > 100 µM; EC50 [2]: 60 µM; EC50 (Poliovirus 1): > 100 µM; EC50 [4]: > 100 µM; EC50 [5]: > 100 µM
O=c1[nH]c2cc3cccnc3c(Cl)c2nc1-c1cccs1						5 µM		
NC(=O)c1ncn([C@@H]2O[C@H](CO)[C@@H](O)[C@H]2O)n1 [RIBAVIRIN]					5 µM	1.3 µM	3.8	
Cn1c(=O)c(-c2cccs2)nc2c(Cl)c3ncccc3cc21						2 µM		
Nc1nc2c(ncn2COCCO)c(=O)[nH]1 [ACYCLOVIR]		> 100 µM		1.5 µM				
O=[N+]([O-])c1c2cccnc2c(Cl)c2[nH]nnc12								IC50 [12]: 9 µM; IC50 [13]: 140 µM
CC(C)c1nc2c(Cl)c3ncccc3cc2[nH]c1=O						> 100 µM		
C[C@@]1(O)[C@H](O)[C@@H](CO)O[C@H]1n1ccc(N)nc1=O	> 100 µM							
CCn1c(=O)c(-c2ccccc2)nc2c(Cl)c3ncccc3cc21						> 100 µM		
Nc1c(/N=C/c2ccc([N+](=O)[O-])cc2)cc2cccnc2c1Cl						1.7 µM		IC50 [12]: 0.81 µM; IC50 [13]: 1 µM
FC(F)(F)c1ccc(-c2nc3cc4cccnc4c(Cl)c3[nH]2)cc1	> 100 µM	> 100 µM	> 100 µM	> 100 µM	> 100 µM	2 µM	>50	EC50 (Yellow fever virus): > 56 µM; EC50 [2]: > 100 µM; EC50 (Poliovirus 1): > 100 µM; EC50 [4]: > 100 µM; EC50 [5]: > 100 µM
N#Cc1ccc(-c2nc3ccncc3[nH]2)cc1						9 µM		
COc1ccc(-c2nc3cc4cccnc4c(Cl)c3[nH]2)c(OC)c1	> 100 µM	> 100 µM	29 µM	13 µM	> 100 µM	6.3 µM	>15.9	EC50 (Yellow fever virus): 95 µM; EC50 [2]: > 100 µM; EC50 (Poliovirus 1): 41 µM; EC50 [4]: 10 µM; EC50 [5]: > 100 µM
